Reference: patent US20220273659A1, “HETEROCYCLIC COMPOUNDS AS KINASE INHIBITORS” (NUVATION BIO INC., priority 2019, published 2022)
Like-named read-outs stand apart in the source and are kept apart here.

Legend:
FMS kinase = biological target: T1, FMS kinase (Homo sapiens, UniProt P07333); assay: LanthaScreen Eu Kinase Binding Assay (ATP, fluorescent-PolyGT substrate); assay type: biochemical
T1 construct: purchased Invitrogen (Life Technologies)
Outline: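 Kinase (1.25 nM) preincubated 10 min with 3-fold compound dilutions, then ATP 10 μM and fluorescent PolyGT substrate 200 nM added for 1 h in the dark at room temperature. Stopped with Tb-antibody (4 nM) and EDTA 20 mM; TR-FRET at 340 nm excitation, 495/520 nm emission; IC50 from four-parameter fit.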

CDK4 = biological target: T2, CDK4 (Homo sapiens, UniProt P11802); assay: In vitro kinase inhibition IC50, luminescence (ADP Glo), retinoblastoma substrate; assay type: biochemical; details: read-out: CDK4/D1 IC50
T2 construct: purchased Invitrogen PR8064A
T2 sequence (P11802 whole entry): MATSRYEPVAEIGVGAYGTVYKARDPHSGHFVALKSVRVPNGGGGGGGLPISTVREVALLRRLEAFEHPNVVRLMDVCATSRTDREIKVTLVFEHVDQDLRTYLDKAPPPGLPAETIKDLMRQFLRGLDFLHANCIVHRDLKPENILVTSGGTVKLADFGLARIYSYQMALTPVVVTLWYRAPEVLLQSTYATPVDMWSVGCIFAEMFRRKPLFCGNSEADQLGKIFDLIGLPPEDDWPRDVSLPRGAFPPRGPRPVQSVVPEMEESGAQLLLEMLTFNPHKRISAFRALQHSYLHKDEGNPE
T2 sequence (P24385 whole entry partner): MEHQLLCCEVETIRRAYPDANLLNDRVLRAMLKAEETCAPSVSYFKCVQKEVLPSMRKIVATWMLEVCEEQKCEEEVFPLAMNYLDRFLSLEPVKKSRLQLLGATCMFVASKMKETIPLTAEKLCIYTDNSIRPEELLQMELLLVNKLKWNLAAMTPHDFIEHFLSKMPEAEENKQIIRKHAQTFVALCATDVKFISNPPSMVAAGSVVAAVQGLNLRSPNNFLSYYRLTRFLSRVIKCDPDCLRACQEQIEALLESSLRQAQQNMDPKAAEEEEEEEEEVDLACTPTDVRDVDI
Outline: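 CDK4 enzyme (5 nM, Invitrogen) was combined with test compound and a mix of retinoblastoma substrate (1 μM) plus ATP (25 μM) in kinase buffer, 30 μL/well in 96-well half area white plates. After 2H at room temperature, ADP Glo reagent stopped the reaction for 45 min, then detection reagent was added and luminescence was read.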

CDK6 = biological target: T3, CDK6 (Homo sapiens, UniProt Q00534); assay: as above; assay type: biochemical; details: read-out: CDK6/D1 IC50
T3 construct: purchased Invitrogen PR8422B
T3 sequence (Q00534 whole entry): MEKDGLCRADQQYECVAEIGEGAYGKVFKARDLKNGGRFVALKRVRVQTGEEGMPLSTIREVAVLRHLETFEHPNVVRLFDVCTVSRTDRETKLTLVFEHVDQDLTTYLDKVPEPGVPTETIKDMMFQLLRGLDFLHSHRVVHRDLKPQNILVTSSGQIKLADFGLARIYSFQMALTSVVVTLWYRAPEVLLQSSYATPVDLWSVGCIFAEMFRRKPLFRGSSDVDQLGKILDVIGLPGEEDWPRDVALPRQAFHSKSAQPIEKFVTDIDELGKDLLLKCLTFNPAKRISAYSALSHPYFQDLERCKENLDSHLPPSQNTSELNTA
T3 sequence (P24385 whole entry partner): as the sequence (P24385 whole entry partner) above
Outline: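 Recombinant CDK6 (5 nM) with retinoblastoma substrate (1 μM) and 25 μM ATP, compound at final 0.1–200 nM, incubated 2 h at room temperature. ADP formed detected by ADP-Glo luminescence. IC50 from four-parameter logistic fit of percent inhibition.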

[1] = tested on: MCF-7-PR (palbociclib-resistant MCF-7) cells; assay: Cell viability in palbociclib-resistant cell line; assay type: cell-based; details: for IC50: Homo sapiens, MCF7, Table 5, palbociclib-resistant cell line maintained at about 850 nM palbociclib
Protocol: Cells were treated with test compounds at 7 to 9 concentrations within a desired concentration range (e.g. 1.1 nM-10 μM) on day 2 by series diluting the test compound stock solution (10 mM in DMSO) with culture medium. Treatment duration was 24 Hr for BT-549 cells and 144 Hr (with a medium change at 72 Hr) for MCF-7 and DU4475 cells. Cell viability was assessed by Cell Titer-Glo® as recommended by Promega (Cat. No.: G7572), or by resazurin assay (Sigma Aldrich, Cat. No.: R7017) post treatment.
Cell viability data were plotted using GraphPad Prism (GraphPad Software, Inc., San Diego, Calif.). In addition, a nonlinear regression model with a sigmoidal dose response and variable slope within GraphPad Prism was used to calculate the IC50 value of individual test compounds.
The effects of test compounds in a palbociclib-resistant cell line and a parental, non-resistant cell line were compared. The palbociclib-resistant cell line (“MCF-7-PR”) was derived from the parental, non-resistant cell line (MCF-7 breast adenocarcinoma cells) by culture of cells over a period of three months in increasing concentrations of palbociclib, starting from about 350 nM and ending at about 850 nM, the final concentration at which they were then maintained in culture. The MCF-7-PR cells were checked using a cell viability assay to confirm that they had at least 5-fold resistance to palbociclib compared to parental MCF-7 cells, as measured by an increase in the cell viability IC50 values. Assessment of cell viability following treatment with palbociclib or test compounds was performed according to the method described above for MCF-7 cells.

[2] = tested on: MCF-7 breast adenocarcinoma cells; assay: Cancer cell proliferation assay, single agent (cell viability); assay type: cell-based; details: Homo sapiens
Outline: (§1)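 Cells seeded day 1, then exposed on day 2 to 7–9 compound concentrations (e.g. 1.1 nM–10 μM); BT-549 for 24 h, MCF-7 and DU4475 for 144 h with medium change at 72 h. Viability by CellTiter-Glo or resazurin; IC50 from variable-slope sigmoidal fit.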

PI3Kδ kinase = biological target: T4, PI3Kδ kinase (Homo sapiens, UniProt O00329); assay: PI3Kδ kinase assay (ADP-Glo, Reaction Biology); assay type: biochemical
T4 construct: purchased Reaction Biology Corporation (assay service)
Outline: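 Kinase in Tris-HCl 40 mM pH 7.5, MgCl2 20 mM, orthovanadate 3 mM, DTT 2 mM, 0.05% CHAPS, 1% DMSO, preincubated 10 min at room temperature with compound (about 0.5 nM–100 μM). ATP started a 30-min reaction at 30 °C. ADP-Glo luminescence converted to μM ADP via standard curve; IC50 from nonlinear regression.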

[3] = tested on: Rb Ser780 phosphorylation in MCF-7 cells; assay: Determination of pRb levels (Ser780 phosphorylation, ELISA); assay type: cell-based; details: Homo sapiens, MCF7, 24H treatment, read-out: Inhibition of Rb phosphorylation IC50
Protocol: Hypo-phosphorylation of the retinoblastoma protein (Rb) by cyclin D:Cdk4/6 complexes results in active Rb, which is a clinically relevant biomarker associated with CDK4 or CDK6 inhibition. As a confirmatory measure of functional activity of CDK4/6, the Ser780 phosphorylation state of Rb was assessed. MCF-7 cells were plated at 2.5×10^5 to 3.0×10^6 cells/well in 6-well cell-culture plates and incubated at 37° C. for 24H in MEM medium supplemented with 10% FBS. Cells were treated for 24H with a medium containing test compound at various concentrations (e.g., 0.01, 0.1, […]) or with DMSO (≤1%) in duplicate. After incubation period, the media was removed, and cells were rinsed once with ice-cold PBS and lysed with 0.2 mL of Cell Lysis Buffer containing 1 mM PMSF and Protease Inhibitor. Protein concentration was estimated following Bradford method. The lysis and the Rb measurements were performed following the manufacturer's ELISA kit protocols and buffers (Cell Signaling Technology, Cat. No.: 13016C). Rb inhibition of test compounds was calculated as percentage of vehicle control. In some cases, a nonlinear regression model with a sigmoidal dose response and variable slope within GraphPad Prism was used to calculate the IC50 value of Rb inhibition for individual test compounds.

[4] = tested on: DU4475 breast carcinoma cells; assay: Cancer cell proliferation assay, single agent (cell viability); assay type: cell-based; details: Homo sapiens, DU-4475; Table 4; Rb negative; treatment 144 Hr with medium change at 72 Hr; Cell Titer-Glo or resazurin
Outline: as §1

CDK2 (cyclin A) = biological target: T5, CDK2 (cyclin A) (Homo sapiens, UniProt P24941); assay: Z'-LYTE kinase assay; assay type: biochemical
T5 construct: purchased Invitrogen Life Technologies (assay service)
Outline: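 FRET-based Z′-LYTE read-out using 1.22–10.3 ng CDK2/cyclin A with Ser/Thr 12 peptide (2 μM in the 2× mix) and ATP (31 μM as the 4× solution), in HEPES pH 7.5, MgCl2, EGTA and BRIJ-35, for 60 min at room temperature. After 1 h of development, the 445/520 nm emission was read, and percent inhibition was fitted to a four-parameter logistic curve for IC50.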

CDK9 (cyclin K) = biological target: T6, CDK9 (cyclin K) (Homo sapiens, UniProt P50750); assay: LanthaScreen Eu Kinase Binding Assay
T6 construct: purchased Invitrogen Life Technologies (assay service)
T6 sequence (P50750 whole entry): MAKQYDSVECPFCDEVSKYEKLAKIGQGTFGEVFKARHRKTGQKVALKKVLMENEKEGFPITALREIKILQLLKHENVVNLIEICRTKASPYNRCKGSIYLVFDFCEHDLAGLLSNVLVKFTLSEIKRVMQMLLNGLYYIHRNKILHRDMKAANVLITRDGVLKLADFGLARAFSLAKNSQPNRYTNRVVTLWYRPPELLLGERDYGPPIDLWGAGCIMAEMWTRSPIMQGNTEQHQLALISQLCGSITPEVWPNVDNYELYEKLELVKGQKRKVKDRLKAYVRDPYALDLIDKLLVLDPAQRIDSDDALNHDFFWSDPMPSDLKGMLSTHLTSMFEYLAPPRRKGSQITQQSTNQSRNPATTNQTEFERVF
T6 sequence (O75909 whole entry partner): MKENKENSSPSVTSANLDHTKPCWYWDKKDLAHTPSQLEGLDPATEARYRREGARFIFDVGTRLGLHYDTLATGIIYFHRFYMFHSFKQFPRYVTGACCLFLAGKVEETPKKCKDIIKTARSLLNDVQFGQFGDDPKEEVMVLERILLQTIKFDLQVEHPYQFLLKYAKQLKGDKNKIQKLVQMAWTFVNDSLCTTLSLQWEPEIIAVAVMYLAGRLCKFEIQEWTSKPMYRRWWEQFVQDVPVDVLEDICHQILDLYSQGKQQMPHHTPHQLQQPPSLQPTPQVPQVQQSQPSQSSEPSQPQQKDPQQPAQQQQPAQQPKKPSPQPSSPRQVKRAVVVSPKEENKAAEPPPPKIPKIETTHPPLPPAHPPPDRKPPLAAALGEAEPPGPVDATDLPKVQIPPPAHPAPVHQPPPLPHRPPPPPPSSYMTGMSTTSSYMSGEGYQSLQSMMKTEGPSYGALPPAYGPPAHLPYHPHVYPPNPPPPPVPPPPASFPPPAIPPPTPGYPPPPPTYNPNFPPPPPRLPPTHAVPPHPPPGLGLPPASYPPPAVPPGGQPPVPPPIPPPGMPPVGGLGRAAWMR
Protocol: 0.16 μL of 100×test compound in 100% DMSO (at specific solutions) were mixed with 3.84 μL of Kinase Buffer (50 mM HEPES pH 7.5, 0.01% BRIJ-35, 10 mM MgCl2, 1 mM EGTA), 8.0 μL of 2× Kinase (5 nM)/Antibody (Eu-anti-His, 2 nM) Mixture and 4.0 μL of 4×Tracer (Tracer 236, 100 nM). The plates were shaken for 30 seconds, and incubated for 60 minutes at room temperature. The plates were read on fluorescence plate reader with Dual emission at 615 nm and 665 nm.
The following equations were used for LanthaScreen Eu Kinase Binding Assay Data Analysis. Percent inhibition (100-% activity) was fitted to the “four-parameter logistic model” in XLfit for determination of IC50 values.

CDK1 (cyclin B) = biological target: T7, CDK1 (cyclin B) (Homo sapiens, UniProt P06493); assay: Z'-LYTE kinase assay; assay type: biochemical
T7 construct: purchased Invitrogen Life Technologies (assay service)
T7 sequence (P06493 whole entry): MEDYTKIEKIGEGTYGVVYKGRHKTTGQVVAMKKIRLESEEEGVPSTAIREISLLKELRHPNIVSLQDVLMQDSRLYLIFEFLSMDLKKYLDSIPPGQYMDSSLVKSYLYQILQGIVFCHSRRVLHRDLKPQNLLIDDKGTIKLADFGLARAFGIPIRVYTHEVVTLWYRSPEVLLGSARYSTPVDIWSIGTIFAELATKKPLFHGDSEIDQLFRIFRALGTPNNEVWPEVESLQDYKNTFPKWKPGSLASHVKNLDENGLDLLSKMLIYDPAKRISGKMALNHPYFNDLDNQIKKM
T7 sequence (P14635 whole entry partner): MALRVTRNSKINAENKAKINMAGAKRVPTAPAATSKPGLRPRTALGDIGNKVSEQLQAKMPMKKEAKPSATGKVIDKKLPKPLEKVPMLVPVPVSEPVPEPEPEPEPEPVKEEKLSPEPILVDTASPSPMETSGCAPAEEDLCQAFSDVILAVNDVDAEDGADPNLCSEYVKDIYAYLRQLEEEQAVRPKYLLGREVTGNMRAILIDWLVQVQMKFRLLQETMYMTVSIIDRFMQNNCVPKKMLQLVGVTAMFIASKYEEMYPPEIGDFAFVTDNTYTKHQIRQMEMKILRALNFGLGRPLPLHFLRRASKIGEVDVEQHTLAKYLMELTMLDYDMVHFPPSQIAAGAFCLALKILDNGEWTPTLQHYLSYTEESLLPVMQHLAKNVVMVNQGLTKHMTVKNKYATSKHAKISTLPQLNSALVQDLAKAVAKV
Protocol: The plates were shaken for 30 seconds, and incubated for 60 minutes at room temperature. […] The plates were read on fluorescence plate reader with Dual emission at 445 nm and 520 nm.
The following equations were used for Z′-LYTE™ Screening Assay Data Analysis.

[5] = MCF7, Table 4, Rb positive, treatment 144 Hr with medium change at 72 Hr, Cell Titer-Glo or resazurin
[6] = MCF7, Table 5, parental, non-resistant cell line compared with MCF-7-PR

T1 sequence (P07333 20-972): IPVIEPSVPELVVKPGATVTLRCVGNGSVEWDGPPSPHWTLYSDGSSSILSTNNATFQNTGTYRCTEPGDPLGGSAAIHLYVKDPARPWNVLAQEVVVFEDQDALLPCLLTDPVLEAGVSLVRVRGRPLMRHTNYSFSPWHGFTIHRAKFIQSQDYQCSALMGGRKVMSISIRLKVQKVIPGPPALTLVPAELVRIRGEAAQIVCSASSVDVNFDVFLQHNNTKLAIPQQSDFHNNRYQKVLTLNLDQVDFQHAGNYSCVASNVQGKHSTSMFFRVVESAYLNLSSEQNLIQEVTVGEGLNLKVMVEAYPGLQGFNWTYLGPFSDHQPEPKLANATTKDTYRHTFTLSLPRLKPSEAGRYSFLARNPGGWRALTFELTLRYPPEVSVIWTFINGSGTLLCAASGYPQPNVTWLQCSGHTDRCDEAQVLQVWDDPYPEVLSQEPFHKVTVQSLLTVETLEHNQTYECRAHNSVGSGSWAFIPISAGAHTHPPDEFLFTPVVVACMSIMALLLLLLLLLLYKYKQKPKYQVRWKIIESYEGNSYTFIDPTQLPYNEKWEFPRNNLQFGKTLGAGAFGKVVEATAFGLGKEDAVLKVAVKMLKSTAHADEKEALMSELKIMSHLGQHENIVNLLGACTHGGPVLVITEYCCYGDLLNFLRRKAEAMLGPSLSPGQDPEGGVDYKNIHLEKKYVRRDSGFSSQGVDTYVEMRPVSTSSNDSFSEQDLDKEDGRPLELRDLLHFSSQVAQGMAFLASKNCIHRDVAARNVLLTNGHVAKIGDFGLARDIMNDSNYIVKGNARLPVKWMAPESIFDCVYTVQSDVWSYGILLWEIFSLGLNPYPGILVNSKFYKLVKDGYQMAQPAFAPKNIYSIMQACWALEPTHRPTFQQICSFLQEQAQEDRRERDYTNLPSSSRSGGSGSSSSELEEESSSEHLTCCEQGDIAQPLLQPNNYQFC

IC50 (FMS kinase) | IC50 (CDK4) | IC50 (CDK6) | IC50 [1] | IC50 [2, 5] | IC50 (PI3Kδ kinase) | IC50 [3] | IC50 [4] | IC50 (CDK2 (cyclin A)) | IC50 (CDK9 (cyclin K)) | IC50 (CDK1 (cyclin B); read-out: CDK1/B IC50) | IC50 (CDK1 (cyclin B)) | SMILES | IC50 [2, 6] | resistance to palbociclib compared to parental MCF-7 cells (increase in cell viability IC50) ([1]; MCF-7-PR versus parental MCF-7)
6 nM | 4.5 nM | 9.5 nM | 85 nM | 110 nM |  |  |  |  |  |  |  | N#Cc1cc2cnc(Nc3ccc(N4CCNCC4)c(Cl)c3)nc2n(C2CCCC2)c1=O [Compound No. 30, 2-((3-chloro-4-(piperazin-1-yl)phenyl)amino)-8-cyclopentyl-7-oxo-7,8-dihydropyrido[2,3-d]pyrimidine-6-carbonitrile] | 115 nM | 
4.2 nM | > 200 nM | > 200 nM | 65 nM | 155 nM | 1660 nM |  |  |  |  |  |  | N#Cc1cc2cnc(Nc3ccc(N4CCNCC4)c(C(F)(F)F)c3)nc2n(C2CCCC2)c1=O [Compound No. 33, 8-cyclopentyl-7-oxo-2-((4-(piperazin-1-yl)-3-(trifluoromethyl)phenyl)amino)-7,8-dihydropyrido[2,3-d]pyrimidine-6-carbonitrile] | 205 nM | 
1 nM | 23 nM | 17 nM | 1040 nM | 395 nM |  | 505 nM | 2440 nM |  |  |  |  | N#Cc1cc2cnc(Nc3cnn(C4CCNCC4)c3)nc2n(C2CCCC2)c1=O [Compound No. 50, 8-cyclopentyl-7-oxo-2-((1-(piperidin-4-yl)-1H-pyrazol-4-yl)amino)-7,8-dihydropyrido [2,3-d] pyrimidine-6-carbonitrile] | 664 nM | 

Second part, the molecule before the results:

SMILES | IC50 (FMS kinase) | IC50 (CDK4) | IC50 (CDK6) | IC50 [1] | IC50 [2, 5] | IC50 (PI3Kδ kinase) | IC50 [3] | IC50 [4] | IC50 (CDK2 (cyclin A)) | IC50 (CDK9 (cyclin K)) | IC50 (CDK1 (cyclin B); read-out: CDK1/B IC50) | IC50 (CDK1 (cyclin B)) | IC50 [2, 6] | resistance to palbociclib compared to parental MCF-7 cells (increase in cell viability IC50) ([1]; MCF-7-PR versus parental MCF-7)
CC(=O)c1c(C)c2cnc(Nc3ccc(N4CCNCC4)cn3)nc2n(C2CCCC2)c1=O [palbociclib, reference compound] |  |  |  |  |  |  |  |  |  |  |  |  |  | at least 5 fold
N#Cc1cc2cnc(Nc3ccc4c(c3)CCN(CCN)C4)nc2n(C2CCCC2)c1=O [Compound No. 66, 2-((2-(2-aminoethyl)-1,2,3,4-tetrahydroisoquinolin-6-yl)amino)-8-cyclopentyl-7-oxo-7,8-dihydropyrido[2,3-d]pyrimidine-6-carbonitrile] |  | 7 nM | 6 nM |  | 568 nM |  |  | 975 nM | 426 nM | 83 nM | 1720 nM |  |  | 
CS(=O)(=O)N1CCC(Nc2ncc3cc(C#N)c(=O)n([C@H]4C[C@@H]5CC[C@H]4C5)c3n2)CC1 (racemic) [Compound No. 353, 8-((1S,2S,4R)-bicyclo[2.2.1]heptan-2-yl)-2-(1-(methylsulfonyl)piperidin-4-ylamino)-7-oxo-7,8-dihydropyrido[2,3-d]pyrimidine-6-carbonitrile] | 69 nM | 15 nM | 13 nM | 769 nM | 515 nM |  |  | 900 nM | 10 nM |  |  | > 2600 nM | 347 nM | 
